13 molecules from patent US20240116985A1, “STAPLED PEPTIDES AND METHODS THEREOF” (priority 2020, published 2024) can be followed below.

As usually defined, the IC50 is the point on the concentration scale where inhibition reaches its midpoint.

Test [1] concerns the target T1, full-length beta-Catenin (Uniprot ID P35222) (Homo sapiens, UniProt P35222).
T1 construct: 10 nM full-length beta-Catenin (Uniprot ID P35222)
T1 sequence (P35222 1-781): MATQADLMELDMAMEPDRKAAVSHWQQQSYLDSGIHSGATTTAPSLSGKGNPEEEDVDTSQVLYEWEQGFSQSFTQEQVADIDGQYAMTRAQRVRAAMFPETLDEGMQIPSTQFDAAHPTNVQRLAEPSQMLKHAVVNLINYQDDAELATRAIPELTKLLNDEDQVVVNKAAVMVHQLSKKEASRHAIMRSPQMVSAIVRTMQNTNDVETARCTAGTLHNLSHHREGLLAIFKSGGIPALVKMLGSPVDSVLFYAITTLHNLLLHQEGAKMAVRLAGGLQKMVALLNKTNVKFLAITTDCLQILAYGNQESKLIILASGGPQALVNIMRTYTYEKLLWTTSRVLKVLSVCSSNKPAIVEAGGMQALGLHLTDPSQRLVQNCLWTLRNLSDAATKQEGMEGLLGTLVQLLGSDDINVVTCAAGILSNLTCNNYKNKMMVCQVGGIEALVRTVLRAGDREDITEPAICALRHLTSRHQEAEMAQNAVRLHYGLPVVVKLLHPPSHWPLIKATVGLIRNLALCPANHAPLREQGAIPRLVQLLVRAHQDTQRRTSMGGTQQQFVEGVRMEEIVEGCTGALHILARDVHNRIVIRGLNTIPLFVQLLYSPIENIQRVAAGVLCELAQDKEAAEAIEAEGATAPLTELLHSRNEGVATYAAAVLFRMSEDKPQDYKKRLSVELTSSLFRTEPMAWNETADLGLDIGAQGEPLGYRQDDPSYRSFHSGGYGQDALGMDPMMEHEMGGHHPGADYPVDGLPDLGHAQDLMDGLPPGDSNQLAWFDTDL
The test is described as follows: Fluorescence polarization IC50 (beta-catenin / 5FAM-TCF4 10-53 competition). Format: binding. Particulars: fluorescence polarization; read-out: beta-Catenin FP IC50. (Polarisation of emitted light reports the rotation of a fluorescent probe.)

Test [2] deals with T2, beta-catenin/TCF4 engagement (Homo sapiens, UniProt P35222).
T2 construct: expressed in transfected cells; host or cells: HEK293
T2 sequence (P35222 1-781): T1 sequence (P35222 1-781)
The test can be described thus: Nano-BRET target engagement assay (B-cat-Halo & TCF4-Luc in HEK293 cells). The test is classed as cell-based. Particulars: absolute IC50; read-out: NanoBRET Abs IC50.

`CC(=O)N1CCC[C@]12CC=CCCCC1(CCCC=CCCCOC(=O)N3CC[C@@](C(=O)N[C@@H](Cc4ccsc4)C(=O)N[C@H](C(=O)N[C@@H](CCC(N)=O)C(N)=O)[C@@H](C)c4ccc5ccccc5c4)(C3)NC(=O)[C@H](CC(C)C)NC(=O)[C@H](Cc3ccccc3)NC(=O)[C@H](C)NC(=O)[C@H](C)NC(=O)[C@H](Cc3cccc(C(=O)O)c3)NC(=O)[C@H](CC(=O)O)NC1=O)NC(=O)[C@H](CC(C)(C)C)NC(=O)[C@H](CC(=O)O)NC2=O` (stereo partly drawn) [I-2313, Ac-PL3-Asp-Npg-B5-Asp-3COOHF-Ala-Ala-Phe-Leu-PyrS2-3Thi-SbMe2NapA-Gln-NH2]: the IC50 amounted to 0.022 µM in test [1] and 24.3 µM in test [2].

Regarding `CC(=O)N1CCC[C@]12CC=CCCCC1(CCCC=CCCCOC(=O)N3CC[C@@](C(=O)N[C@@H](Cc4ccsc4)C(=O)N[C@H](C(=O)N[C@@H](C)C(N)=O)[C@@H](C)c4ccc5ccccc5c4)(C3)NC(=O)[C@H](C(C)C)NC(=O)[C@H](Cc3ccccc3)NC(=O)[C@H](C)NC(=O)[C@H](CCC(N)=O)NC(=O)[C@H](Cc3cccc(C(=O)O)c3)NC(=O)[C@H](CC(=O)O)NC1=O)NC(=O)[C@H](CC(C)(C)C)NC(=O)[C@H](CC(=O)O)NC2=O` (stereo partly drawn) [I-2314, Ac-PL3-Asp-Npg-B5-Asp-3COOHF-Gln-Ala-Phe-Val-PyrS2-3Thi-SbMe2NapA-Ala-NH2], the figures for the IC50 in test [1] and in test [2] were 0.048 µM and greater than 20 µM, respectively.

As for `CC(=O)N1CCC[C@]12CC=CCCCC1(CCCC=CCCCOC(=O)N3CC[C@@](C(=O)N[C@@H](Cc4ccccc4C(F)(F)F)C(=O)N[C@@H](Cc4csc5ccccc45)C(=O)N[C@@H](C)C(N)=O)(C3)NC(=O)[C@H](CC(C)C)NC(=O)[C@H](Cc3ccccc3)NC(=O)[C@H](C)NC(=O)[C@H](CCC(=O)N3CCC(N4CCCCC4)CC3)NC(=O)[C@H](Cc3cccc(C(=O)O)c3)NC(=O)[C@H](CC(=O)O)NC1=O)NC(=O)[C@H](CC(C)(C)C)NC(=O)[C@H](CC(=O)O)NC2=O` (stereo partly drawn) [I-2317, Ac-PL3-Asp-Npg-B5-Asp-3COOHF-[4Pippip]GlnR-Ala-Phe-Leu-PyrS2-2F3MeF-BztA-Ala-NH2], the IC50 in test [1] was determined as 0.012 µM; in test [2], 18.8 µM.

Regarding `CCS(=O)(=O)N1CCN(C(=O)CC[C@@H]2NC(=O)[C@H](Cc3cccc(C(=O)O)c3)NC(=O)[C@H](CC(=O)O)NC(=O)C3(CCCC=CCCCOC(=O)N4CC[C@@](C(=O)N[C@@H](Cc5ccccc5C(F)(F)F)C(=O)N[C@@H](Cc5csc6ccccc56)C(=O)N[C@@H](C)C(N)=O)(C4)NC(=O)[C@H](CC(C)C)NC(=O)[C@H](Cc4ccccc4)NC(=O)[C@H](C)NC2=O)CCCC=CC[C@]2(CCCN2C(C)=O)C(=O)N[C@@H](CC(=O)O)C(=O)N[C@@H](CC(C)(C)C)C(=O)N3)CC1` (stereo partly drawn) [I-2321, Ac-PL3-Asp-Npg-B5-Asp-3COOHF-[EtSO2Ppz]GlnR-Ala-Phe-Leu-PyrS2-2F3MeF-BztA-Ala-NH2], the IC50 in test [1] was 0.005 µM; in test [2], 1.7 µM.

In the case of `CC(=O)N1CCC[C@]12CC=CCCCC1(CCCC=CCCCOC(=O)N3CC[C@@](C(=O)N[C@@H](Cc4ccccc4C(F)(F)F)C(=O)N[C@@H](Cc4csc5ccccc45)C(=O)N[C@@H](C)C(N)=O)(C3)NC(=O)[C@H](CC(C)C)NC(=O)[C@H](Cc3ccccc3)NC(=O)[C@H](C)NC(=O)[C@H](CCC(=O)N3CCN(CCCN(C)C)CC3)NC(=O)[C@H](Cc3cccc(C(=O)O)c3)NC(=O)[C@H](CC(=O)O)NC1=O)NC(=O)[C@H](CC(C)(C)C)NC(=O)[C@H](CC(=O)O)NC2=O` (stereo partly drawn) [I-2323, Ac-PL3-Asp-Npg-B5-Asp-3COOHF-[Me2NPrPip]GlnR-Ala-Phe-Leu-PyrS2-2F3MeF-BztA-Ala-NH2], the IC50 in test [1] stood at 0.006 µM; in test [2], 17.7 µM.

With `CC(=O)N1CC2CC1C(=O)N[C@@H](CC(=O)O)C(=O)N[C@@H](CC(C)(C)C)C(=O)NC1(CCCCCCCCOC(=O)N3CC[C@@](C(=O)N[C@@H](Cc4ccsc4)C(=O)N[C@@H](Cc4csc5ccccc45)C(=O)N[C@@H](CCC(N)=O)C(N)=O)(C3)NC(=O)[C@H](CC(C)C)NC(=O)[C@H](Cc3ccccc3)NC(=O)[C@H](C)NC(=O)[C@H](C)NC(=O)[C@H](CN(CC(=O)O)CC(F)(F)F)NC(=O)[C@H](CC(=O)O)NC1=O)CCCCCCOc1cccc(c1)C(=O)O2` (stereo partly drawn) [I-2328, Ac-HypBzEs3OAllyl-Asp-Npg-B5-Asp-TfeGA-Ala-Ala-Phe-Leu-PyrS2-3Thi-BztA-Gln-NH2], the 50% inhibitory concentration (IC50) in test [1] is 0.17 µM; in test [2] it was greater than 20 µM.

Take `CC(=O)N1CCC[C@]12CC=CCCCC1(CCCC=CCCCOC(=O)N3CC[C@@](C(=O)N[C@@H](Cc4ccsc4)C(=O)N[C@@H](Cc4csc5ccccc45)C(=O)N[C@@H](CCC(N)=O)C(N)=O)(C3)NC(=O)[C@H]([C@@H](C)O)NC(=O)[C@H](Cc3ccccc3)NC(=O)[C@H](C)NC(=O)[C@H](C)NC(=O)[C@H](Cc3cccc(C(=O)O)c3)NC(=O)[C@H](CC(N)=O)NC1=O)NC(=O)[C@H](CC(C)(C)C)NC(=O)[C@H](CC(=O)O)NC2=O` (stereo partly drawn) [I-2336, Ac-PL3-Asp-Npg-B5-Asn-3COOHF-Ala-Ala-Phe-Thr-PyrS2-3Thi-BztA-Gln-NH2]: the IC50 amounted to 0.019 µM in test [1] and 14.4 µM in test [2].

With `CC(=O)N1CCC[C@]12CC=CCCCC1(CCCC=CCCCOC(=O)N3CC[C@@](C(=O)N[C@@H](Cc4ccsc4)C(=O)N[C@@H](Cc4csc5ccccc45)C(=O)N[C@@H](CCC(N)=O)C(N)=O)(C3)NC(=O)[C@H](CC(N)=O)NC(=O)[C@H](Cc3ccccc3)NC(=O)[C@H](C)NC(=O)C(C)(C)NC(=O)[C@H]([C@@H](C)O)NC(=O)[C@H](CC(N)=O)NC1=O)NC(=O)[C@H](CC(C)(C)C)NC(=O)[C@H](CC(=O)O)NC2=O` (stereo partly drawn) [I-2338, Ac-PL3-Asp-Npg-B5-Asn-Thr-Aib-Ala-Phe-Asn-PyrS2-3Thi-BztA-Gln-NH2], the IC50 in test [1] is 0.063 µM; in test [2], greater than 20 µM.

With `CC(=O)N1CCC[C@]12CC=CCCCC1(CCCC=CCCCOC(=O)N3CC[C@@](C(=O)N[C@@H](Cc4ccccc4)C(=O)N[C@@H](Cc4csc5ccccc45)C(=O)N[C@@H](CCC(N)=O)C(N)=O)(C3)NC(=O)[C@H](CC(C)C)NC(=O)[C@H](Cc3ccccc3)NC(=O)[C@H](C)NC(=O)[C@H](CCCCNC(C)C)NC(=O)[C@H](Cc3cccc(C(=O)O)c3)NC(=O)[C@H](CC(=O)O)NC1=O)NC(=O)[C@H](CC1CCCCC1)NC(=O)[C@H](CC(N)=O)NC2=O` (stereo partly drawn) [I-2340, Ac-PL3-Asn-Cha-B5-Asp-3COOHF-iPrLys-Ala-Phe-Leu-PyrS2-Phe-BztA-Gln-NH2], the IC50 in test [1] was 0.005 µM; in test [2], greater than 20 µM.

Consider `CC(=O)N1CCC[C@]12CC=CCCCC1(CCCC=CCCCOC(=O)N3CC[C@@](C(=O)N[C@@H](Cc4ccccc4)C(=O)N[C@@H](Cc4csc5ccccc45)C(=O)N[C@@H](CCC(N)=O)C(N)=O)(C3)NC(=O)[C@H](CC(C)C)NC(=O)[C@H](Cc3ccccc3)NC(=O)[C@H](C)NC(=O)[C@H](CCCCNC(C)C)NC(=O)[C@H](CN(CC(=O)O)CC(F)(F)F)NC(=O)[C@H](CC(=O)O)NC1=O)NC(=O)[C@H](CC1CCCCC1)NC(=O)[C@H](CC(N)=O)NC2=O` (stereo partly drawn) [I-2341, Ac-PL3-Asn-Cha-B5-Asp-TfeGA-iPrLys-Ala-Phe-Leu-PyrS2-Phe-BztA-Gln-NH2], for which the IC50 in test [1] is 0.042 µM; in test [2], greater than 20 µM.

As for `CC(=O)N1CCC[C@]12CC=CCCCC1(CCCC=CCCCOC(=O)N3CC[C@@](C(=O)N[C@@H](Cc4ccccc4)C(=O)N[C@@H](Cc4csc5ccccc45)C(=O)N[C@@H](CCCCN)C(N)=O)(C3)NC(=O)[C@H](CC(C)C)NC(=O)[C@H](Cc3ccccc3)NC(=O)[C@H](C)NC(=O)[C@H](CCCCNC(C)C)NC(=O)[C@H](CCC(N)=O)NC(=O)[C@H](CC(=O)O)NC1=O)NC(=O)[C@H](CC1CCCCC1)NC(=O)[C@H](CC(N)=O)NC2=O` (stereo partly drawn) [I-2350, Ac-PL3-Asn-Cha-B5-Asp-Gln-iPrLys-Ala-Phe-Leu-PyrS2-Phe-BztA-Lys-NH2], the IC50 was 0.063 µM in test [1] and greater than 20 µM in test [2].

For the molecule `CC(=O)N1CCC[C@]12CC=CCCCC1(CCCC=CCCCOC(=O)N3CC[C@@](C(=O)N[C@@H](Cc4ccccc4)C(=O)N[C@@H](Cc4csc5ccccc45)C(=O)N[C@@H](CCC(N)=O)C(N)=O)(C3)NC(=O)[C@H](CC(C)C)NC(=O)[C@H](Cc3ccccc3)NC(=O)[C@H](C)NC(=O)[C@H](CCO)NC(=O)[C@H](CCC(N)=O)NC(=O)[C@H](CC(=O)O)NC1=O)NC(=O)[C@H](CC1CCCCC1)NC(=O)[C@H](CC(N)=O)NC2=O` (stereo partly drawn) [I-2354, Ac-PL3-Asn-Cha-B5-Asp-Gln-Hse-Ala-Phe-Leu-PyrS2-Phe-BztA-Gln-NH2], the results for the half-maximal inhibitory concentration (IC50) in test [1] and in test [2] were 0.1 µM and greater than 20 µM, respectively.

Consider `CCOC(=O)C[C@@H]1NC(=O)C2(CCCC=CCCCOC(=O)N3CC[C@@](C(=O)N[C@@H](Cc4ccsc4)C(=O)N[C@@H](Cc4csc5ccccc45)C(=O)N[C@@H](CCC(N)=O)C(N)=O)(C3)NC(=O)[C@H](CC(C)C)NC(=O)[C@H](Cc3ccccc3)NC(=O)[C@H](C)NC(=O)[C@H](C)NC(=O)[C@H](CC(=O)O)NC1=O)CCCC=CC[C@]1(CCCN1C(C)=O)C(=O)N[C@@H](CC(=O)O)C(=O)N[C@@H](CC(C)(C)C)C(=O)N2` (stereo partly drawn) [I-2357, Ac-PL3-Asp-Npg-B5-[Et]AspE-Asp-Ala-Ala-Phe-Leu-PyrS2-3Thi-BztA-Gln-NH2], for which the 50% inhibitory concentration (IC50) in test [1] was 6.99 µM; in test [2] it was greater than 20 µM.
